Counter-ions that a name gives are not always drawn. Bounds are passed on as bounds.

One series in a line: antipentylenetetrazol test (pentylenetetrazol 125 mg/kg s.c.). It counts as in vivo. To be noted: sc; SLC ddY male mouse, 20-24 g; pentylenetetrazol preliminarily administered at 125 mg/kg s.c.; read-out: ED50 anti-pentylenetetrazol test. Here is the method:
(§1) *^1 test animal: SLC ddY male mouse, 20-24 g of body weight
*^2 pentylenetetrazol was preliminarily administered at a dose of 125
mg per 1 kg of body weight in subcutaneous injection.
Consider `CN1CCN=C(c2ccccc2)c2cc(Cl)ccc21` [medazepam, reference compound], for which the ED50 (as a rule, the dose at which the effect has come halfway, by size or by number of responders) was 4.76 mg/kg.
On to `NCc1nnc2n1-c1ccc(Cl)cc1C(c1ccccc1Cl)OC2` (centres unmarked) [drawing 27 (H, hydrobromide)], for which the ED50 stood at 2.49 mg/kg.
On the same count and under the same terms, then `Cc1nnc2n(c1=O)-c1ccc(Cl)cc1C(c1ccccc1Cl)OC2` (centres unmarked), with 0.75 mg/kg; and `CCOC1(c2ccccc2Cl)OCc2nnc(CN)n2-c2ccc(Cl)cc21` (centres unmarked) [drawing 27 (OC2H5, 1/2 succinate)], with 1.14 mg/kg.
Same read-out and setting: the same measure for `Cc1nnc2n1-c1ccc(Cl)cc1C(c1ccccc1Cl)OC2` (centres unmarked): 0.74 mg/kg; for `CN1CCN(C=C2N=C3COC(c4ccccc4Cl)c4cc(Cl)ccc4N3C2=O)CC1` (centres unmarked): 3.28 mg/kg.
The same measure, in the same setting: the same measure for `CN1C(=O)CN=C(c2ccccc2)c2cc(Cl)ccc21` [diazepam, reference compound]: 1.2 mg/kg; for `CN(C)C=C1N=C2COC(c3ccccc3Cl)c3cc(Cl)ccc3N2C1=O` (centres unmarked): 1.6 mg/kg.

The next series in a line: rotarod performance test. The series is classed as in vivo. To be noted: SLC ddY male mouse, 20-24 g.
Description: as §1
For the compound `CN1CCN=C(c2ccccc2)c2cc(Cl)ccc21` [medazepam, reference compound], the ED50 came out at 104 mg/kg.
The same measure, in the same setting: the same measure for `NCc1nnc2n1-c1ccc(Cl)cc1C(c1ccccc1Cl)OC2` (centres unmarked) [drawing 27 (H, hydrobromide)]: 24.1 mg/kg; for `Cc1nnc2n(c1=O)-c1ccc(Cl)cc1C(c1ccccc1Cl)OC2` (centres unmarked): 24.5 mg/kg; for `CCOC1(c2ccccc2Cl)OCc2nnc(CN)n2-c2ccc(Cl)cc21` (centres unmarked) [drawing 27 (OC2H5, 1/2 succinate)]: 33.5 mg/kg.
As to `Cc1nnc2n1-c1ccc(Cl)cc1C(c1ccccc1Cl)OC2` (centres unmarked), the 50% effective dose (ED50) amounted to 30.6 mg/kg.
For `CN1CCN(C=C2N=C3COC(c4ccccc4Cl)c4cc(Cl)ccc4N3C2=O)CC1` (centres unmarked), the ED50 is > 100 mg/kg.
The compound `CN1C(=O)CN=C(c2ccccc2)c2cc(Cl)ccc21` [diazepam, reference compound] returned an ED50 of 13.4 mg/kg.
Still for that read-out and setting: the same measure for `CN(C)C=C1N=C2COC(c3ccccc3Cl)c3cc(Cl)ccc3N2C1=O` (centres unmarked): 73.5 mg/kg.

The next series can be described thus: acute lethality (LD50). To be noted: in vivo; DS male mouse, 20-24 g.
For `CN1CCN=C(c2ccccc2)c2cc(Cl)ccc21` [medazepam, reference compound], the LD50 (as a rule, the dose at which mortality reaches 50%) was > 1000 mg/kg.
Still for that read-out and setting: then `NCc1nnc2n1-c1ccc(Cl)cc1C(c1ccccc1Cl)OC2` (centres unmarked) [drawing 27 (H, hydrobromide)], with > 1000 mg/kg.
Same read-out and setting: then `Cc1nnc2n(c1=O)-c1ccc(Cl)cc1C(c1ccccc1Cl)OC2` (centres unmarked), with > 1000 mg/kg.
With `CCOC1(c2ccccc2Cl)OCc2nnc(CN)n2-c2ccc(Cl)cc21` (centres unmarked) [drawing 27 (OC2H5, 1/2 succinate)], the LD50 is > 1000 mg/kg.
Still for that read-out and setting: then `Cc1nnc2n1-c1ccc(Cl)cc1C(c1ccccc1Cl)OC2` (centres unmarked), with > 1000 mg/kg; and `CN1CCN(C=C2N=C3COC(c4ccccc4Cl)c4cc(Cl)ccc4N3C2=O)CC1` (centres unmarked), with > 1000 mg/kg.
The same measure, in the same setting: then `CN(C)C=C1N=C2COC(c3ccccc3Cl)c3cc(Cl)ccc3N2C1=O` (centres unmarked), with > 1000 mg/kg.
